{
  "source": "patent EP0550775A1",
  "about": "“Cephalosporin derivatives” (F. HOFFMANN-LA ROCHE AG, priority 1992, dated 1993)",
  "key": {"[1]": {"system": "E. coli 257", "experiment": "microbe, parasite or virus in culture", "type": "cell-based", "settings": "Escherichia coli, agar dilution, read-out: MIC", "procedure": "(§1) In vitro activity of the compounds of the present invention was measured by the Minimum Inhibitory Concentration (MIC) in micrograms/ml utilizing the Agar Dilution Method, which is well known in the art, against a variety of gram-negative and gram-positive organisms."}, "[2]": {"system": "E. coli ATCC 25922", "experiment": "microbe, parasite or virus in culture", "type": "cell-based", "settings": "Escherichia coli, ATCC25922, agar dilution, read-out: MIC", "procedure": "as §1"}, "[3]": {"system": "E. coli TEM-1", "experiment": "microbe, parasite or virus in culture", "type": "cell-based", "settings": "Escherichia coli, agar dilution, read-out: MIC", "procedure": "as §1"}, "[4]": {"system": "Enter. cloacae P99", "experiment": "microbe, parasite or virus in culture", "type": "cell-based", "settings": "Enterobacter cloacae, agar dilution, read-out: MIC", "procedure": "as §1"}, "[5]": {"system": "Cit. freundi BS-16", "experiment": "In vitro MIC, Agar Dilution Method", "type": "cell-based", "settings": "read-out: MIC", "procedure": "as §1"}, "[6]": {"system": "Enter. cloacae 5699", "experiment": "In vitro MIC, Agar Dilution Method", "type": "cell-based", "settings": "Enterobacter cloacae; Enter. cloacae 5699; agar dilution; read-out: MIC", "procedure": "as §1"}, "[7]": {"system": "K. pneumoniae A", "experiment": "In vitro MIC, Agar Dilution Method", "type": "cell-based", "settings": "Klebsiella pneumoniae; K. pneumoniae A; agar dilution; read-out: MIC", "procedure": "as §1"}, "[8]": {"system": "Prot. mirabilis 90", "experiment": "In vitro MIC, Agar Dilution Method", "type": "cell-based", "settings": "Proteus mirabilis; Prot. mirabilis 90; agar dilution; read-out: MIC", "procedure": "as §1"}, "[9]": {"system": "Prot. vulgaris 1028 BC", "experiment": "In vitro MIC, Agar Dilution Method", "type": "cell-based", "settings": "Proteus vulgaris, read-out: MIC", "procedure": "as §1"}, "[10]": {"system": "Prot. vulgaris ATCC 6380", "experiment": "In vitro MIC, Agar Dilution Method", "type": "cell-based", "settings": "Proteus vulgaris, ATCC6380, read-out: MIC", "procedure": "as §1"}, "[11]": {"system": "Ps. aeruginosa 18SH", "experiment": "In vitro MIC, Agar Dilution Method", "type": "cell-based", "settings": "Pseudomonas aeruginosa, read-out: MIC", "procedure": "as §1"}, "[12]": {"system": "Ps. aeruginosa 5712", "experiment": "In vitro MIC, Agar Dilution Method", "type": "cell-based", "settings": "Pseudomonas aeruginosa, read-out: MIC", "procedure": "as §1"}, "[13]": {"system": "Ps. aeruginosa 765", "experiment": "In vitro MIC, Agar Dilution Method", "type": "cell-based", "settings": "Pseudomonas aeruginosa, read-out: MIC", "procedure": "as §1"}, "[14]": {"system": "Ps. aeruginosa 8780", "experiment": "In vitro MIC, Agar Dilution Method", "type": "cell-based", "settings": "Pseudomonas aeruginosa, read-out: MIC", "procedure": "as §1"}, "[15]": {"system": "Ps. aeruginosa ATCC 27853", "experiment": "In vitro MIC, Agar Dilution Method", "type": "cell-based", "settings": "Pseudomonas aeruginosa, ATCC27853, read-out: MIC", "procedure": "as §1"}, "[16]": {"system": "Ser. marcescens 1071", "experiment": "In vitro MIC, Agar Dilution Method", "type": "cell-based", "settings": "Serratia marcescens; Ser. marcescens 1071; agar dilution; read-out: MIC", "procedure": "as §1"}, "[17]": {"system": "Ser. marcescens SM", "experiment": "In vitro MIC, Agar Dilution Method", "type": "cell-based", "settings": "Serratia marcescens, read-out: MIC", "procedure": "as §1"}, "[18]": {"system": "Staph. aureus 1059B", "experiment": "In vitro MIC, Agar Dilution Method", "type": "cell-based", "settings": "Staphylococcus aureus, read-out: MIC", "procedure": "as §1"}, "[19]": {"system": "Staph. aureus 67", "experiment": "In vitro MIC, Agar Dilution Method", "type": "cell-based", "settings": "Staphylococcus aureus; Staph. aureus 67; agar dilution; read-out: MIC", "procedure": "as §1"}, "[20]": {"system": "Staph. aureus 753", "experiment": "In vitro MIC, Agar Dilution Method", "type": "cell-based", "settings": "Staphylococcus aureus, read-out: MIC", "procedure": "as §1"}, "[21]": {"system": "Staph. aureus ATCC 29213", "experiment": "In vitro MIC, Agar Dilution Method", "type": "cell-based", "settings": "Staphylococcus aureus, ATCC29213, read-out: MIC", "procedure": "as §1"}, "[22]": {"system": "Staph. aureus Smith", "experiment": "In vitro MIC, Agar Dilution Method", "type": "cell-based", "settings": "Staphylococcus aureus, read-out: MIC", "procedure": "as §1"}, "[23]": {"system": "Str. faecalis ATCC 29212", "experiment": "In vitro MIC, Agar Dilution Method", "type": "cell-based", "settings": "Enterococcus faecalis, ATCC29212; Str. faecalis ATCC 29212; agar dilution; read-out: MIC", "procedure": "as §1"}, "[24]": {"system": "Str. pneumoniae 6301", "experiment": "In vitro MIC, Agar Dilution Method", "type": "cell-based", "settings": "Streptococcus pneumoniae; Str. pneumoniae 6301; agar dilution; read-out: MIC", "procedure": "as §1"}, "[25]": {"system": "Str. pyogenes 4", "experiment": "In vitro MIC, Agar Dilution Method", "type": "cell-based", "settings": "Streptococcus pyogenes; Str. pyogenes 4; agar dilution; read-out: MIC", "procedure": "as §1"}, "[26]": {"experiment": "Chemical stability (half-life) in phosphate buffer by HPLC", "type": "physicochemical", "settings": "pH 7.4, phosphate buffer (pH7.40; 37°C)", "procedure": "Chemical stability (half-life) in phosphate buffer (pH 7.40; 37°C) of some of the compounds of the present invention was determined using high performance liquid chromatography (HPLC). A Hamilton PRP-1 (250 mm x 4.1 mm) column was used with UV detection at 280 nm. The mobile phase used consisted of a 0.01 M solution of tetradecyltrimethylammonium bromide in a mixture of 70% 0.072M phosphate buffer (pH 8.2) and 30% acetonitrile. In some experiments, minor adjustments to the pH and in the acetonitrile concentration were made to improve resolutions."}},
  "note": "Structures can show the parent of a compound that is named as a salt.",
  "data": [
    {"smiles": "CCN1CCN(C(=O)N[C@@H](C(=O)N[C@@H]2C(=O)N3C(C(=O)O)=C(CN4CCN(c5cc6c(cc5F)c(=O)c(C(=O)O)cn6C5CC5)CC4)CS[C@H]23)c2ccc(O)cc2)C(=O)C1=O", "note": "[Compound E, [6R-[6α,7β(R)]]-3-[[4-(3-Carboxy-1-cyclopropyl-6-fluoro-1,4-dihydro-4-oxo-7-quinolinyl)-1-piperazinyl]methyl]-7-[[[[(4-ethyl-2,3-dioxo-1-piperazinyl)carbonyl]amino](4-hydroxyphenyl)acetyl]amino]-8-oxo-5-thia-1-azabicyclo[4.2.0]oct-2-ene-2-carboxylic acid trfluoroacetic acid salt]", "values": [
      {"measurement": "MIC", "setting": "[1]", "result": "≤ 15.7", "unit": "µg/mL"},
      {"measurement": "MIC", "setting": "[2]", "result": "≤ 15.7", "unit": "µg/mL"},
      {"measurement": "MIC", "setting": "[3]", "result": 31.3, "unit": "µg/mL"},
      {"measurement": "MIC", "setting": "[4]", "result": "≤ 15.7", "unit": "µg/mL"},
      {"measurement": "MIC", "setting": "[5]", "result": 62.5, "unit": "µg/mL"},
      {"measurement": "MIC", "setting": "[6]", "result": 125, "unit": "µg/mL"},
      {"measurement": "MIC", "setting": "[7]", "result": 500, "unit": "µg/mL"},
      {"measurement": "MIC", "setting": "[8]", "result": 1000, "unit": "µg/mL"},
      {"measurement": "MIC", "setting": "[9]", "result": 62.5, "unit": "µg/mL"},
      {"measurement": "MIC", "setting": "[10]", "result": 125, "unit": "µg/mL"},
      {"measurement": "MIC", "setting": "[11]", "result": 2000, "unit": "µg/mL"},
      {"measurement": "MIC", "setting": "[12]", "result": 32000, "unit": "µg/mL"},
      {"measurement": "MIC", "setting": "[13]", "result": 4000, "unit": "µg/mL"},
      {"measurement": "MIC", "setting": "[14]", "result": 8000, "unit": "µg/mL"},
      {"measurement": "MIC", "setting": "[15]", "result": 8000, "unit": "µg/mL"},
      {"measurement": "MIC", "setting": "[16]", "result": 250, "unit": "µg/mL"},
      {"measurement": "MIC", "setting": "[17]", "result": 250, "unit": "µg/mL"},
      {"measurement": "MIC", "setting": "[18]", "result": 2000, "unit": "µg/mL"},
      {"measurement": "MIC", "setting": "[19]", "result": 16000, "unit": "µg/mL"},
      {"measurement": "MIC", "setting": "[20]", "result": 2000, "unit": "µg/mL"},
      {"measurement": "MIC", "setting": "[21]", "result": 2000, "unit": "µg/mL"},
      {"measurement": "MIC", "setting": "[22]", "result": 2000, "unit": "µg/mL"},
      {"measurement": "MIC", "setting": "[23]", "result": 16000, "unit": "µg/mL"},
      {"measurement": "MIC", "setting": "[24]", "result": 125, "unit": "µg/mL"},
      {"measurement": "MIC", "setting": "[25]", "result": 125, "unit": "µg/mL"},
      {"measurement": "half-life", "setting": "[26]", "result": 60, "unit": "h"}
    ]}
  ]
}
